Here are results for 3 compounds from ChEMBL document CHEMBL5726001, “Compounds for use in preparing heterocyclic triazole agonists of the APJ receptor” (2018).

What is called EC50 is the concentration that produces a half-maximal response.

The target in the assay is T1, Apelin receptor (Homo sapiens, UniProt P35414).
T1 sequence (P35414 whole entry): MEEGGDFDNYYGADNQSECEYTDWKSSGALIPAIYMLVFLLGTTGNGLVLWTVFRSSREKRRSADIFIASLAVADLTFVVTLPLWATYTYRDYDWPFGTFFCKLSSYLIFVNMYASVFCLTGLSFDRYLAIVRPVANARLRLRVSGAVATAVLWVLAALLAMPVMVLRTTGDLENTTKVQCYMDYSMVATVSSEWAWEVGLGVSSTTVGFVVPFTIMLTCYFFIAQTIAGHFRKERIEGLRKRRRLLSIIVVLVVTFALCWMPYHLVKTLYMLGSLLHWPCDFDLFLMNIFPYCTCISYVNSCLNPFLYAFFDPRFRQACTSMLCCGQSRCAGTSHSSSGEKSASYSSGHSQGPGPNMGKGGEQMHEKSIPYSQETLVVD
The assay is described as follows: [35S]GTPgammaS Binding: The human APJ receptor was cloned by polymerase chain reaction and the gene encoding the receptor was subcloned in pFLAG-CMV-3 expression vector (Sigma, Saint Louis, Mo. USA) in-house at Amgen. A GTPγS binding assay was performed on membranes prepared from CHO cells stably expressing human APJ receptor. The optimum experimental conditions for the concentrations of GDP, MgCl2, and NaCl in the assay buffer were initially determined. The assay was performed in assay buffer [20 mM HEPES, pH 7.5, 5 mM MgCl2, and 0.1% (w/v) BSA with 200 mM NaCl, 3 μM GDP] and membranes expressing human APJ receptor/well along with WGA PS beads. The reaction was initiated by addition of 0.2 nM [35S]GTPγS (Perkin Elmer Life and Analytical Sciences, Waltham USA) in the absence or presence of various ligands and incubated at RT for 90 min. Nonspecific binding was determined in the presence of 100 μM GTPγS and was always less than 0.2% of total binding. All the results presented are means of several independent experiments and analyzed by non-linear regression methods using commercially available program Prism (GraphPad, San Diego, Calif.). Background: GTPγS resists hydrolysis and so accumulates on activated G proteins.
Take `COc1ncnc(OC)c1-n1c(NS(=O)(=O)[C@@H](C)[C@H](C)c2ncc(Cl)cn2)nnc1C1COC1`: the EC50 amounted to 730 nM.
For `COc1cccc(OC)c1-n1c(NS(=O)(=O)[C@@H](C)[C@@H](OC(C)C)c2ncc(C)cn2)nnc1[C@H]1COCCO1` the value was 16 nM; for `CO[C@H]1CCC[C@@H](OC)[C@@H]1n1c(NS(=O)(=O)[C@@H](C)[C@H](C)c2ncc(C)cn2)nnc1C1CCCO1` (single isomer, unassigned), 240 nM.
